From US10323254B2, “Method for regulating plant growth” (RIKEN, priority 2015, dated 2019)

System: BSS1-GFP
Assay: Fluorescence microscopy of punctate BSS1-GFP in transgenic seedlings
Format: in vivo, Arabidopsis thaliana
Conditions: root cells of BSS1-GFP plants treated with 50 μM BFA for 1 hour
Protocol: FIGS. 5C to 5E show analysis of BSS1-GFP puncta signal intensities upon treatment with Brz and BL. Seven-day-old BSS1-GFP transgenic seedlings were treated for 3 hours with 3 μM Brz (Brz), an equal volume of DMSO (Mock), or 100 μM BL (BL). […] The results are represented as the mean±s.d. The signal intensity was measured using ImageJ software. […]
The plants that were transformed with the CaMV35S-BSS1-GFP construct BSS1(-GFP)-OX and the CaMV35S-BIL1-GFP construct BIL1-GFP-OX were observed via confocal laser scanning microscopy with a BX60 fluorescence microscope (Olympus) equipped with a Model CSU10 confocal scanner (Yokogawa Electric) and LSM700 (Zeiss).
FM4-64 (Molecular Probes) dissolved in water was applied to Arabidopsis plants at a final concentration of 4 μM for 3 minutes. The plants were washed with water to remove the excessive amount of the stain and observed. A DMSO-base stock solution of Brefeldin A (BFA) (Sigma) was applied to the cells at a final concentration of 50 μM for 1 hour.
The images were analyzed using ImageJ software. To measure the ratio of the nuclear and cytosolic signals of BIL1-GFP for each cell, the signal intensities in the nucleus and cytosol were calculated from the mean of the intensity in each area. The nuclear to cytosolic signal ratio was then calculated for each cell. The average nuclear/cytosolic signal ratio and standard error were calculated from measurements of at least 54 cells from each line (FIG. 9B). Line scan measurements from the vacuole to the nucleus through the cytosol were performed, and representative plot profiles of sample measurements are presented in FIG. 5C.

C[C@H]1CCC/C=C/[C@@H]2C[C@H](O)C[C@H]2[C@H](O)/C=C/C(=O)O1 [BFA, Brefeldin A]
formation of punctate BSS1: not inhibited
